The subject of one test is Human alphaherpesvirus 1. Kind of test: Compound was evaluated for antiviral activity against Herpes simplex virus type 1; ND means Not detected owing to toxicity. In kind it is functional, organism-based.
For another test, the system named is Influenza A virus. Kind of test: Compound was evaluated for antiviral activity against Influenza virus A/PR/8. In kind it is functional, organism-based.
The next test has as its system MDCK. As to the kind of experiment: Compound was evaluated for inhibition of MDCK cell growth. The settings on record: Canis lupus familiaris. It counts as functional.
Test [1] concerns Streptococcus pneumoniae. Kind of test: Compound was evaluated for antibacterial activity against Streptococcus pneumoniae; IA means Inactive. It counts as functional, organism-based.
The test system of a further test is Vero. As to the kind of experiment: Compound was evaluated for inhibition of cell growth of Vero cells. In kind it is functional. The settings on record: Chlorocebus sabaeus.
Test [2] relates to Streptococcus pneumoniae. Kind of test: Compound was evaluated for antibacterial activity against Streptococcus pneumoniae; weak activity. In kind it is functional, organism-based.
The test system of a further test is Candida albicans. Kind of test: Compound was evaluated for inhibitory activity on Candida albicans; active. It counts as functional, organism-based.

Our source for the IC50, CC50 and Activity values is ChEMBL document CHEMBL1133267, “The total synthesis of piclavines A1-4 and their biological evaluation” (Bioorg Med Chem Lett, 2000).

In general, IC50 refers to the concentration at which inhibition is half-maximal. One may read the CC50 as the concentration at which the toxic effect on the cells reaches its halfway point.

Structures are written as SMILES. ≈ marks a conversion by molar mass, not a printed value. Calls of active or inactive are those of the source. The rule behind the calls is not given here.

On to `CCCCCCC/C=C/C[C@@H]1CCC[C@@H]2CCCN21`, for which the IC50 entry in the test on Human alphaherpesvirus 1 is “Not detected”; with Influenza A virus, 1.45 µg/mL (≈ 5.5 µM). Besides, the CC50 in the test on MDCK was 20.1 µg/mL (≈ 76.3 µM); with Vero, 42.3 µg/mL (≈ 161 µM). Also, in the test on Streptococcus pneumoniae [1], the result was inactive.

Take `CCCCCCC/C=C\C[C@@H]1CCC[C@@H]2CCCN21`: the IC50 result in the test with Human alphaherpesvirus 1 was “Not detected”; in the test with Influenza A virus it was 4.2 µg/mL (≈ 15.9 µM). In addition, the CC50 in the test with MDCK was found to be 17.1 µg/mL (≈ 64.9 µM); in the test with Vero, 40.9 µg/mL (≈ 155 µM). Moreover, in the test with Streptococcus pneumoniae [1], the outcome was inactive.

With `CCCCCCC/C=C\C[C@H]1CCC[C@@H]2CCCN21`, the IC50 entry in the test with Human alphaherpesvirus 1 was “Not detected”; in the test on Influenza A virus, 3.72 µg/mL (≈ 14.1 µM). Also, the results for the CC50 in the test with MDCK and with Vero were 9.28 µg/mL (≈ 35.2 µM) and 7.67 µg/mL (≈ 29.1 µM), respectively. Further, the Activity result with Streptococcus pneumoniae [2] was “weak activity”. In the test on Candida albicans, the result was Active.

As for `CCCCCCC/C=C/C[C@H]1CCC[C@@H]2CCCN21`, the IC50 entry was “Not detected” in the test on Human alphaherpesvirus 1 and 4.84 µg/mL (≈ 18.4 µM) in the test with Influenza A virus. In addition, the figures for the CC50 in the test with MDCK and in the test with Vero were 8.92 µg/mL (≈ 33.9 µM) and 9.18 µg/mL (≈ 34.8 µM), respectively. Further, in the test on Streptococcus pneumoniae [2], the Activity entry was “weak activity”.
